From EP4810040A2, “INHIBITORS OF APOL1 AND METHODS OF USING SAME” (priority 2020, dated 2022)

Molecular target: T1, APOL1 G1 (Homo sapiens, UniProt O14791, I384M/S342G)
T1 sequence (O14791 28-398 S342G/I384M): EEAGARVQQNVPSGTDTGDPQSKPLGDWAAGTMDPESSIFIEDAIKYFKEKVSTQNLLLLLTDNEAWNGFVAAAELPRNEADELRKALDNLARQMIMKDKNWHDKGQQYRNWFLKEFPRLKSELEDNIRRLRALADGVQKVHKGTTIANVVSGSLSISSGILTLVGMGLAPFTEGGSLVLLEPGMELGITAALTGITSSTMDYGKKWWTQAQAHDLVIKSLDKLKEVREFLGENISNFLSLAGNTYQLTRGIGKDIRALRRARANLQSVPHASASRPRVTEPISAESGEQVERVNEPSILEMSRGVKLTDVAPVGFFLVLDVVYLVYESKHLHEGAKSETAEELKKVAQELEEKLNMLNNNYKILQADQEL
Test: MultiTox-Fluor Multiplex Cytotoxicity Assay, tet-inducible APOL1 G1 T-REx-HEK293 cells
Type: cell-based
Parameters: expressed in transfected cells; host or cells: T-REx HEK293, clone G1 DC3.25 (pAAVS1-Puro-APOL1 G1)
Details: for IC90: HEK293, Multi-Tox Assay, APOL1 variant (G0/G1/G2) of the HEK293 cells not given, read-out: Multi-Tox Assay IC90; for Emax / Multi-Tox Assay Max Activity (%): Multi-Tox Assay, APOL1 variant not given; for Emax: read-out: Multi-Tox Assay Max Activity (%)
Experimental: The MultiTox-Fluor Multiplex Cytotoxicity Assay is a single-reagent-addition, homogeneous, fluorescence assay that measures the number of live and dead cells simultaneously in culture wells. The assay measures cell viability and cytotoxicity by detecting two distinct protease activities. The live-cell protease activity is restricted to intact viable cells and is measured using a fluorogenic, cell-permeant peptide glycyl-phenylalanylamino fluorocoumarin (GF-AFC) substrate. The substrate enters intact cells, where it is cleaved to generate a fluorescent signal proportional to the number of living cells. […] A second, cell-impermeant, fluorogenic peptide substrate (bis-AAF-R110 Substrate) is used to measure dead-cell protease that has been released from cells that have lost membrane integrity. A ratio of dead to live cells is used to normalize data.
Briefly, the tet-inducible transgenic APOL1 T-REx-HEK293 cell lines were incubated with 50 ng/mL tet to induce APOL1 in the presence of 3-(2-(4-fluorophenyl)-1H-indol-3-yl)-N-((3S,4R)-4-hydroxy-2-oxopyrrolidin-3-yl)propenamide at […], 0.0045, 0.0015, 0.0005 µM in duplicate for 24 hours in a humidified 37°C incubator. The MultiTox reagent was added to each well and placed back in the incubator for an additional 30 minutes. The plate was read on the EnVision plate reader. A ratio of dead to live cells was used to normalize, and data was imported, analyzed and fit using Genedata Screener (Basel, Switzerland) software. Data was normalized using percent of control, no tet (100% viability), and 50 ng/mL tet treated (0% viability),and fit using Smart Fit. The reagents, methods, and complete protocol for the MultiTox assay are described below. Table 42. Reagents Used in the Multi-Tox Assay
Human embryonic kidney (HEK293) cell lines containing a tet-inducible expression system (T-REx™; Invitrogen, Carlsbad, CA) and Adeno-associated virus site 1 pAA VS1-Puro-APOL1 G0 or pAAVS1-Puro-APOL1 G1 or pAAVS1-Puro-APOL1 G2 Clones G0 DC2.13, G1 DC3.25, and G2 DC4.44 were grown in a T-225 flask at ~90% confluency in cell growth media (DMEM, 10% Tet-free FBS, 2 mM L-glutamine, 100 Units/mL penicillin-streptomycin, 5 µg/mL blasticidin S HCl, 1 µg/mL puromycin dihydrochloride). Cells were washed with DPBS and then trypsinized to dissociate from the flask. Media was used to quench the trypsin, cells were then pelleted at 200g and resuspended in fresh cell assay media (DMEM, 2% Tet-free FBS, 2 mM L-glutamine, 100 Units/mL penicillin-streptomycin). Cells were counted and diluted to 1.17 x 10^6 cells/mL. 20 µL of cells (23,400/well) were dispensed to every well of a 384-well Poly-D-Lysine coated plate using the Multidrop dispenser. The plates were then incubated at room temperature for one hour.
Tetracycline is needed to induce APOL1 expression. 1 mg/mL tet stock in water was diluted to 250 ng/mL (5X) in cell assay media. 60 µL of cell assay media (no tet control) was dispensed in columns 1 and 24, and 60 µL of 5X tet was dispensed in 384-PP-round bottom plate in columns 2 to 23 with the Multidrop dispenser.
Assay ready plates from the Global Compound Archive were ordered using template 384_APOL1Cell_DR10n2_50uM_v3. Compounds were dispensed at 200 nL in DMSO. The final top concentration was 10 µM with a 10 point 3-fold dilution in duplicate in the MultiTox assay.
20 µL were transferred from the 5X tet plate to the ARP and mixed, then 5 µL of 5X tet and the compounds were transferred to the cell plate and mixed using the Bravo. The cell plate was placed in the humidified 37°C 5% CO2 incubator for 24 hours.
The MultiTox-Fluor Multiplex Cytotoxicity Assay was performed in accordance with the manufacturer's protocol. […]

Row | SMILES | IC90 [µM] | Emax [%] | Multi-Tox Assay Max Activity (%)
1 | COc1ccc(C2CC3(CC(C)N2)OCCc2cc(Cl)sc23)nn1 (mixture of isomers) [Compound 76] | < 0.05 | 99.3 | 
2 | COc1cccc(C2CC3(CC(C)N2)OCCc2cc(Cl)sc23)n1 (mixture of isomers) [Compound 135] | 0.05 to 0.5 |  | 98.0
3 | CC1CC2(CC(C)N1)OCCc1cc(Cl)sc12 (mixture of isomers) [Compound 194, 2-chloro-2',6'-dimethyl-spiro[4,5-dihydrothieno[2,3-c]pyran-7,4'-piperidine]] | 0.05 to 0.5 | 98.7 | 
4 | CC1CC2(CC(CO)N1)OCCc1cc(Cl)sc12 (mixture of isomers) [Compound 210, (2-chloro-6'-methyl-spiro[4,5-dihydrothieno[2,3-c]pyran-7,4'-piperidine]-2'-yl)methanol] | > 0.5 | 92.2 | 
5 | CC1CC2(CC(C(C)C)N1)OCCc1cc(Cl)sc12 (mixture of isomers) [Compound 214] | 0.05 to 0.5 | 99.3 | 
6 | CCC1CC2(CC(C)N1)OCCc1cc(Cl)sc12 (mixture of isomers) [Compound 215] | 0.05 to 0.5 | 99.3 | 
7 | CC1CC2(CC(C3CCOCC3)N1)OCCc1cc(Cl)sc12 (mixture of isomers) [Compound 216] | > 0.5 | 97.7 | 
8 | CC1CC2(CC(C3CC3)N1)OCCc1cc(Cl)sc12 (mixture of isomers) [Compound 217] | < 0.05 | 99.2 | 
9 | CC1CC2(CC(C3CCC3)N1)OCCc1cc(Cl)sc12 (mixture of isomers) [Compound 218] | 0.05 to 0.5 | 99.3 | 
10 | CC1CC2(CC(c3cccnc3)N1)OCCc1cc(Cl)sc12 (racemic) [Compound 20, 2-chloro-2'-methyl-6'-(3-pyridyl)spiro[4,5-dihydrothieno[2,3-c]pyran-7, 4'-piperidine]] | < 0.05 | 99.4 | 
11 | Cc1cc([C@@H]2C[C@]3(C[C@H](C)N2)OCCc2cc(Cl)sc23)ccn1 (racemic) [Compound 21, (2S)-2-chloro-2'-methyl-6'-(2-methyl-4-pyridyl)spiro[4,5-dihydrothieno[2,3-c]pyran-7,4'-piperidine]] | < 0.05 | 99.7 | 
12 | Cc1noc2cc([C@@H]3C[C@]4(C[C@H](C)N3)OCCc3cc(Cl)sc34)ccc12 (racemic) [Compound 25] | < 0.05 |  | 100.0
13 | C[C@H]1C[C@@]2(C[C@@H](c3cnc4c(cnn4C)c3)N1)OCCc1cc(Cl)sc12 (racemic) [Compound 26] | < 0.05 |  | 100.0
14 | COc1ccc([C@@H]2C[C@]3(C[C@H](C)N2)OCCc2cc(Cl)sc23)c(F)c1 (racemic) [Compound 44] | < 0.05 |  | 99.5
15 | C[C@H]1C[C@@]2(C[C@@H](c3ccc(C(N)=O)cc3)N1)OCCc1cc(Cl)sc12 (racemic) [Compound 47] | < 0.05 | 99.3 | 
16 | Cc1n[nH]c2ncc([C@@H]3C[C@]4(C[C@H](C)N3)OCCc3cc(Cl)sc34)cc12 (racemic) [Compound 48] | < 0.05 |  | 
17 | COc1ccc([C@@H]2C[C@]3(C[C@H](C)N2)OCCc2cc(Cl)sc23)cn1 (racemic) [Compound 49] | < 0.05 | 99.7 | 
18 | CC(=O)Nc1ccc([C@@H]2C[C@]3(C[C@H](C)N2)OCCc2cc(Cl)sc23)cc1 (racemic) [Compound 50] | < 0.05 |  | 99.7

Row | SMILES | IC90 [µM] | Emax [%] | Multi-Tox Assay Max Activity (%)
19 | C[C@H]1C[C@@]2(C[C@@H](c3cnc(C4CC4)nc3)N1)OCCc1cc(Cl)sc12 (racemic) [Compound 52] | < 0.05 |  | 99.7
20 | C[C@H]1C[C@@]2(C[C@@H](c3cccc(C#N)n3)N1)OCCc1cc(Cl)sc12 (racemic) [Compound 53] | < 0.05 |  | 99.3
21 | Cc1ccc([C@@H]2C[C@]3(C[C@H](C)N2)OCCc2cc(Cl)sc23)cn1 (racemic) [Compound 55] | < 0.05 |  | 99.7
22 | C[C@H]1C[C@@]2(C[C@@H](c3cnn(CCO)c3)N1)OCCc1cc(Cl)sc12 (racemic) [Compound 56] | < 0.05 |  | 99.8
23 | C[C@H]1C[C@@]2(C[C@@H](c3cnc(N)nc3)N1)OCCc1cc(Cl)sc12 (racemic) [Compound 57] | < 0.05 |  | 99.7
24 | Cc1ccc([C@@H]2C[C@]3(C[C@H](C)N2)OCCc2cc(Cl)sc23)nn1 (racemic) [Compound 58] | < 0.05 |  | 99.7
25 | C[C@H]1C[C@@]2(C[C@@H](c3ccc(O)cn3)N1)OCCc1cc(Cl)sc12 (racemic) [Compound 59] | < 0.05 |  | 99.3
26 | CNc1ncc([C@@H]2C[C@]3(C[C@H](C)N2)OCCc2cc(Cl)sc23)cn1 (racemic) [Compound 60] | < 0.05 |  | 99.7
27 | COc1ccc([C@@H]2C[C@]3(C[C@H](C)N2)OCCc2cc(Cl)sc23)cc1C#N (racemic) [Compound 62] | < 0.05 | 99.3 | 
28 | C[C@H]1C[C@@]2(C[C@@H](c3cnc(C(N)=O)cn3)N1)OCCc1cc(Cl)sc12 (racemic) [Compound 63] | < 0.05 | 99.8 | 
29 | Cc1cncc([C@@H]2C[C@]3(C[C@H](C)N2)OCCc2cc(Cl)sc23)c1 (racemic) [Compound 64] | < 0.05 | 100 | 
30 | C[C@H]1C[C@@]2(C[C@@H](c3cnn(-c4ccccc4)c3)N1)OCCc1cc(Cl)sc12 (racemic) [Compound 65] | < 0.05 | 99.5 | 
31 | Cc1cc([C@@H]2C[C@]3(C[C@H](C)N2)OCCc2cc(Cl)sc23)on1 (racemic) [Compound 66] | < 0.05 | 99.8 | 
32 | C[C@H]1C[C@@]2(C[C@@H](c3ccc4cn[nH]c4c3)N1)OCCc1cc(Cl)sc12 (racemic) [Compound 67] | < 0.05 | 99.7 | 
33 | C[C@H]1C[C@@]2(C[C@@H](c3ccc(O)nc3)N1)OCCc1cc(Cl)sc12 (racemic) [Compound 68] | < 0.05 | 99.7 | 
34 | CCOc1ccc([C@@H]2C[C@]3(C[C@H](C)N2)OCCc2cc(Cl)sc23)nc1 (racemic) [Compound 69] | < 0.05 | 99.7 | 
35 | C[C@H]1C[C@@]2(C[C@@H](c3cnc(-c4ccccc4)o3)N1)OCCc1cc(Cl)sc12 (racemic) [Compound 70] | < 0.05 | 99.3 | 
36 | C[C@H]1C[C@@]2(C[C@@H](c3ccc(C(=O)NC4CC4)cc3)N1)OCCc1cc(Cl)sc12 (racemic) [Compound 71] | < 0.05 | 100 | 
